Data as given in patent US7626031B2, “Substituted 3-(diarylmethylene)indolin-2-ones and methods of their use” (Symphony Evolution, Inc., priority 2002, dated 2009).

Key:
[1] = target: T1, KDR (baculovirus expressed human KDR kinase domain D807-V1356) (Homo sapiens, UniProt P35968); assay: biochemical
T1 construct: human KDR kinase domain D807-V1356; host or cells: baculovirus expression system
Description: (§1) Kinase activity and compound inhibition are investigated using one or more assay formats. The ATP concentrations for each assay are selected to be close to the Michaelis-Menten constant (KM) for each individual kinase. Dose-response experiments are performed at 10 different inhibitor concentrations in a 384-well plate format. […] Exemplary kinase assays are described below. KDR Assay
KDR biochemical activity was assessed using a Luciferase-Coupled Chemiluminescent Kinase assay (LCCA) format. Kinase activity was measured as the percent ATP remaining following the kinase reaction. Remaining ATP was detected by luciferase-luciferin-coupled chemiluminescence. […] The mixture is incubated at ambient temperature for 4 hours after which 20 uL luciferase-luciferin mix is added and the chemiluminescent signal read using a Wallac Victor^2 reader.

Flt-1 = Flt-1 (Homo sapiens, UniProt P17948); assay: Kinase assay, Flt-1 (33P-ATP incorporation or luciferase-coupled ATP consumption); type: biochemical; conditions: read-out: Flt1 IC50
Chain of Flt-1 (P17948 27-1338, species assumed): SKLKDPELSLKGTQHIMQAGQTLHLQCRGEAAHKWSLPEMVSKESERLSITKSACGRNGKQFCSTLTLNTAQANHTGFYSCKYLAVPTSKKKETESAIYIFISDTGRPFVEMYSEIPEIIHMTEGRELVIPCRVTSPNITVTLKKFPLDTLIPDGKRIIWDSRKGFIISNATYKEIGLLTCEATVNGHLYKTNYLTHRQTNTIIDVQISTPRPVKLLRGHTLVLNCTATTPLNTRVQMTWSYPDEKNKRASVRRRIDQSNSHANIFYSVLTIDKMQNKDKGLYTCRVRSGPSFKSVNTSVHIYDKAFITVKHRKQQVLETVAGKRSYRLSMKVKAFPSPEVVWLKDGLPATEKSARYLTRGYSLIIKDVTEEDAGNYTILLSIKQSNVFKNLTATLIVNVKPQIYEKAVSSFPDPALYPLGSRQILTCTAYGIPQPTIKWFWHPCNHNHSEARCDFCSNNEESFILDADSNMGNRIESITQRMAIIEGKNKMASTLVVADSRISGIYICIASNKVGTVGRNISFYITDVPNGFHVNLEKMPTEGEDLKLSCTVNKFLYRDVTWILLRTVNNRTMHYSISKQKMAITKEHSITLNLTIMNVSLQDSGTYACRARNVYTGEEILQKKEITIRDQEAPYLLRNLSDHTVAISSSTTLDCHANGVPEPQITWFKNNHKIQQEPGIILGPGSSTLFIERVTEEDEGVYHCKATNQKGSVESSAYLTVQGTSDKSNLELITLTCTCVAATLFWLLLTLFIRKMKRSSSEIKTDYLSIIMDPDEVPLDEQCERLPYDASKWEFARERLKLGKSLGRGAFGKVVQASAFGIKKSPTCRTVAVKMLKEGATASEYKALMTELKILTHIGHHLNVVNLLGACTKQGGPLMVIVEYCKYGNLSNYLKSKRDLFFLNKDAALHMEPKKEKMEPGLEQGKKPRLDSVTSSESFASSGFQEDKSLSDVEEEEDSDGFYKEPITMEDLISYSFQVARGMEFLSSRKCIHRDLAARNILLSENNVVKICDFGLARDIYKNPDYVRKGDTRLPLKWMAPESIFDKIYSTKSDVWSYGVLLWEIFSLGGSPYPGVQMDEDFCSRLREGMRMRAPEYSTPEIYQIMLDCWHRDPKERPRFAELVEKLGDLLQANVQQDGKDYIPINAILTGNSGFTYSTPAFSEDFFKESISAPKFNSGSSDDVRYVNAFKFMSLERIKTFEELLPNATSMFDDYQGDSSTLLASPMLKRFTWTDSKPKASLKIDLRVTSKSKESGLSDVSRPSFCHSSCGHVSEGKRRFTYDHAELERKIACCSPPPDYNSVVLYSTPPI
Description: (§2) Kinase assays were performed by measurement of incorporation of γ-^33P ATP into immobilized myelin basic protein (MBP). […] Plates were washed 3× with 100 μl TBS. […] Compound dilutions were performed in DMSO and added to assay wells to a final DMSO concentration of 1%. Each data point was measured in duplicate, and at least two duplicate assays were performed for each individual compound determination. Enzyme was added to final concentrations of 10 nM or 20 nM, for example. A mixture of unlabeled ATP and γ-^33P ATP was added to start the reaction (2×10^6 cpm of γ-^33P ATP per well (3000 Ci/mmole) and either 10 μM or 30 μM unlabeled ATP, typically. The reactions were carried out for 1 hour at room temperature with shaking. Plates were washed 7× with TBS, followed by the addition of 50 μl/well scintillation fluid (Wallac). Plates were read using a Wallac Trilux counter. This is only one format of such assays, various other formats are possible, as known to one of ordinary skill in the art.
(§3) Tyrosine kinase activity is determined by 1) measurement of kinase-dependent ATP consumption by in the presence of a generic substrate such as, polyglutamic acid, tyrosine, 4:1 (pEY), by luciferase/luciferin-mediated chemiluminescence or; 2) incorporation of radioactive phosphate derived from ^33P-ATP into a generic substrate which has been adsorbed onto the well surface of polystyrene microtiter plates. Phosphorylated substrate products are quantified by scintillation spectrometry.
as §1

EphA2 = EphA2 (Homo sapiens, UniProt P29317); assay: Kinase assay, EphA2 (33P-ATP incorporation or luciferase-coupled ATP consumption); type: biochemical
Chain of EphA2 (P29317 24-976, species assumed): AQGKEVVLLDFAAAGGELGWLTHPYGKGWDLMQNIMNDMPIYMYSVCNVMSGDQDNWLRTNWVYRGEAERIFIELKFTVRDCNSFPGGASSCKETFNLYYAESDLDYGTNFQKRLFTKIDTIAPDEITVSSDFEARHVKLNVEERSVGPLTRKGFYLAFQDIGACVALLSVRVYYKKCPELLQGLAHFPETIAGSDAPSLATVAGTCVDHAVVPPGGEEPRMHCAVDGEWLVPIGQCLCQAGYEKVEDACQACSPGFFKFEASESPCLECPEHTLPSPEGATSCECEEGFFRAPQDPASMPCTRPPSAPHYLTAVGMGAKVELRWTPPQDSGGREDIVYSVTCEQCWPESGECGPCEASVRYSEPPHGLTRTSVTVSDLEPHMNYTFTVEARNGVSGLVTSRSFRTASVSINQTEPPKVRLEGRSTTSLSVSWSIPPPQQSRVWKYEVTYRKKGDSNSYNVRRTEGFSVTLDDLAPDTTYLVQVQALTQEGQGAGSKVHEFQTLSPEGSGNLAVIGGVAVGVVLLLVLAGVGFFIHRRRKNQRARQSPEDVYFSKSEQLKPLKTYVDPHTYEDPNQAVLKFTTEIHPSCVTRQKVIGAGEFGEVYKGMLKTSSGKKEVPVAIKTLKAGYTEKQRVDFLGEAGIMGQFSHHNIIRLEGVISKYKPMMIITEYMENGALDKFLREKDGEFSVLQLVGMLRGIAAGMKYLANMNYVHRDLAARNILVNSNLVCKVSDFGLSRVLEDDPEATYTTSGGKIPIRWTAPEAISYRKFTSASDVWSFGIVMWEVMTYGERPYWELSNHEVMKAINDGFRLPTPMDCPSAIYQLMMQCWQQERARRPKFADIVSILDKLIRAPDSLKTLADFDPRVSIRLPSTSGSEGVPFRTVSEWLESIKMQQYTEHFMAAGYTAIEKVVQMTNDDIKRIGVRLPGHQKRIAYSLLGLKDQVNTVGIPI
Description: as §2, §3, §1

Fyn = Fyn (Homo sapiens, UniProt P06241); assay: Kinase assay, Fyn; type: biochemical
Chain of Fyn (P06241 whole entry, species assumed): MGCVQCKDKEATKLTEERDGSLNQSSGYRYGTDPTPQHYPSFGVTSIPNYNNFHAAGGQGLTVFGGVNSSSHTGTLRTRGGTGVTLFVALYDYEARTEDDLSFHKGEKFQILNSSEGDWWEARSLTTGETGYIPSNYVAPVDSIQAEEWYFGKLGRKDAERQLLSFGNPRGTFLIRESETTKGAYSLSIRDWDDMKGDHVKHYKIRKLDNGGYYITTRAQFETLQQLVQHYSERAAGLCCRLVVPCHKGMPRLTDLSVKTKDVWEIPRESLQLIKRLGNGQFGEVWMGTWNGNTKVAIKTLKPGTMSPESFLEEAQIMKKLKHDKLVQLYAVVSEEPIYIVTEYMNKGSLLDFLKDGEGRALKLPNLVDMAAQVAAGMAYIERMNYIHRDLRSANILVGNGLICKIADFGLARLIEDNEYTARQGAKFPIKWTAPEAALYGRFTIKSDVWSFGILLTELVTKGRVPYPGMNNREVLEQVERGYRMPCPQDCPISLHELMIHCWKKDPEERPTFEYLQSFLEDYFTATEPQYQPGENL
Description: as §1

PDGFR alpha = PDGFR alpha (Homo sapiens, UniProt P16234); assay: Kinase assay, PDGFR alpha (33P-ATP incorporation or luciferase-coupled ATP consumption); type: biochemical; conditions: read-out: PDGF-R-A IC50
Description: as §2, §3, §1

EGFR = EGFR (Homo sapiens, UniProt P00533); assay: Kinase assay, EGFR (33P-ATP incorporation or luciferase-coupled ATP consumption); type: biochemical
Chain of EGFR (P00533 25-1210, species assumed): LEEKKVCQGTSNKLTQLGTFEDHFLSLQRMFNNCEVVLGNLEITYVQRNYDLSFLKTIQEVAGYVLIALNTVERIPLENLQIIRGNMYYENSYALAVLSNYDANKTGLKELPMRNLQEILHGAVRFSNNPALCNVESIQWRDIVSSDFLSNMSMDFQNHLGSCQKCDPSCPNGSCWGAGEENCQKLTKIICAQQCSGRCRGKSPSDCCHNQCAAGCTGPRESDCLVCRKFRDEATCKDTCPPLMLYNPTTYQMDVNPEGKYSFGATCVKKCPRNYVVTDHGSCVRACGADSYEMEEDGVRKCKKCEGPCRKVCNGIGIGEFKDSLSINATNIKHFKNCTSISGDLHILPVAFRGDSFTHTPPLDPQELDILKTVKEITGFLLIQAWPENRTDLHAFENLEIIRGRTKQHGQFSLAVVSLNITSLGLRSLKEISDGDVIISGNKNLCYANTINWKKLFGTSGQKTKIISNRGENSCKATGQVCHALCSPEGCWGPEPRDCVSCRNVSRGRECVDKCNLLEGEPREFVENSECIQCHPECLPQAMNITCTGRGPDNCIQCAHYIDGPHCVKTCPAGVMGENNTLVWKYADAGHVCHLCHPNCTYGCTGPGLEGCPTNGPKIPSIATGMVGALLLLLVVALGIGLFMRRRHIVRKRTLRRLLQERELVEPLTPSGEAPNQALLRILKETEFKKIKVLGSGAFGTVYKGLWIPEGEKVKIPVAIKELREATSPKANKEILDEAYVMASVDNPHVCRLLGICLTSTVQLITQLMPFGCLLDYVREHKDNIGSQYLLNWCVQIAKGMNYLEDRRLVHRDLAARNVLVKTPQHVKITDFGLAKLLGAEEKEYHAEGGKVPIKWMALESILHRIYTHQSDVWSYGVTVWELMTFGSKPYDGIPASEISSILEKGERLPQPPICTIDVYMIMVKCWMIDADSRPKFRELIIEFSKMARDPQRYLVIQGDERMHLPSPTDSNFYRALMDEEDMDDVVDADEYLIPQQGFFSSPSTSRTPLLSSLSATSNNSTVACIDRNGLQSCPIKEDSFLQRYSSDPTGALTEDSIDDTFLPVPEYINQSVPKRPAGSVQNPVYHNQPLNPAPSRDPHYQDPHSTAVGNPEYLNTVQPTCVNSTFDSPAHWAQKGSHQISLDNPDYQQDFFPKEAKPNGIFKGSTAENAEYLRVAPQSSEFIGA
Description: as §2, §3, §1

IRK = IRK (Homo sapiens, UniProt P06213); assay: Kinase assay, IRK; type: biochemical
Description: as §1

FGFR1 = FGFR1 (Homo sapiens, UniProt P11362); assay: Kinase assay, FGFR1 (33P-ATP incorporation or luciferase-coupled ATP consumption); type: biochemical
Description: as §2, §3, §1

T1 sequence (P35968 807-1356): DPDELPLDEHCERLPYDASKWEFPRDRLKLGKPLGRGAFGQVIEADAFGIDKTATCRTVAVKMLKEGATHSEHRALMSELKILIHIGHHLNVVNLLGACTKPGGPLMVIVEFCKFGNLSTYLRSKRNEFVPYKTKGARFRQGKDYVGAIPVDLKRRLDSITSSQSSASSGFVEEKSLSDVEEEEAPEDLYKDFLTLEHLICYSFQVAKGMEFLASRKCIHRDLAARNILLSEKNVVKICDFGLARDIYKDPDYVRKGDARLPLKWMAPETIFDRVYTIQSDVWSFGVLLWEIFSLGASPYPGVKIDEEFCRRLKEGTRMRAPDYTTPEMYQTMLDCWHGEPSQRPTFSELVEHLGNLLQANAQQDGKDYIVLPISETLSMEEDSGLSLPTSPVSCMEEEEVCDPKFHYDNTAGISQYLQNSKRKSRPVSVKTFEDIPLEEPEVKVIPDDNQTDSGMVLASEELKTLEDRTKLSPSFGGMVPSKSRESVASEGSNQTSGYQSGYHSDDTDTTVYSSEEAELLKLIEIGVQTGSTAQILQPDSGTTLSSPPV

Structure (SMILES)	IC50 [1] [nM]	IC50 (Flt-1) [nM]	IC50 (EphA2) [nM]	IC50 (Fyn) [nM]	IC50 (PDGFR alpha) [nM]	IC50 (EGFR) [nM]	IC50 (IRK) [nM]	IC50 (FGFR1) [nM]
COc1ccc2[nH]c(/C(=C3\C(=O)Nc4ccc(NC5CCN(Cc6ccccc6)C5)cc43)c3ccccc3)nc2c1 (centres unmarked) [Entry 1, (3Z)-3-[[5-(methyloxy)-1H-benzimidazol-2-yl](phenyl)methylidene[-5-}[1-(phenylmethyl)pyrrolidin-3-yl]amino}-1,3-dihydro-2H-indol-2-one]	< 50	50 to 500	500 to 5000	50 to 500	50 to 500	500 to 5000	> 5000	–
CCN1CCC(Nc2ccc3c(c2)/C(=C(\c2ccc(OC)cc2)c2nc4cc(OC)ccc4[nH]2)C(=O)N3)CC1 [Entry 5, (3Z)-5-[(1-ethylpiperidin-4-yl)amino]-3-{[5-(methyloxy)-1H-benzimidazol-2-yl][4-(methyloxy)phenyl]methylidene}-1,3-dihydro-2H-indol-2-one]	< 50	50 to 500	> 5000	< 50	< 50	500 to 5000	500 to 5000	–
CCN1CCC(Nc2ccc3c(c2)/C(=C(\c2ccc(C)cc2)c2nc4cc(OC)ccc4[nH]2)C(=O)N3)CC1 [Entry 6, (3Z)-5-[(1-ethylpiperidin-4-yl)amino]-3-[[5-(methyloxy)-1 H-benzimidazol-2-yl](4-methylphenyl)methylidene]-1,3-dihydro-2H-indol-2-one]	< 50	50 to 500	500 to 5000	< 50	< 50	500 to 5000	500 to 5000	–
CCN1CCC(Nc2ccc3c(c2)/C(=C(\c2ccc([N+](=O)[O-])cc2)c2nc4ccccc4[nH]2)C(=O)N3)CC1 [Entry 7, (3Z)-3-(1H-benzimidazol-2-yl(4-nitrophenyl)methylidene]-5-[(1-ethylpiperidin-4-yl)amino]-1,3-dihydro-2H-indol-2-one]	< 50	50 to 500	> 5000	50 to 500	< 50	500 to 5000	> 5000	–
COc1ccc2[nH]c(/C(=C3\C(=O)Nc4ccc(NC5CC(C)(C)NC(C)(C)C5)cc43)c3ccccc3)nc2c1 [Entry 10, (3Z)-3-[[5-(methyloxy)-1H-benzimidazol-2-yl](phenyl)methylidene]-5-[(2,2,6,6-tetramethylpiperidin-4-yl)amino]-1,3-dihydro-2H-indol-2-one]	500 to 5000	500 to 5000	500 to 5000	500 to 5000	50 to 500	500 to 5000	500 to 5000	–
CCN1CCC(Nc2ccc3c(c2)/C(=C(\c2ccc(N)cc2)c2nc4ccccc4[nH]2)C(=O)N3)CC1 [Entry 11, (3Z)-3-[(4-aminophenyl)(1H-benzimidazol-2-yl)methylidene]-5-[(1-ethylpiperidin-4-yl)amino]1,3-dihydro-2H-indol-2-one]	< 50	50 to 500	500 to 5000	< 50	< 50	50 to 500	500 to 5000	–
CCN1CCC(Nc2ccc3c(c2)/C(=C(\c2ccc(OC)cc2)c2ncc[nH]2)C(=O)N3)CC1 [Entry 15, (3Z)-5-[(1-ethylpiperidin-4-yl)amino]-3-{1H-imidazol-2-yl[4-(methyloxy)phenyl]methylidene}-1,3-dihydro-2H-indol-2-one]	< 50	50 to 500	500 to 5000	< 50	< 50	500 to 5000	500 to 5000	–
CCN1CCC(Nc2ccc3c(c2)/C(=C(\c2ccc(F)cc2)c2nc4ccccc4[nH]2)C(=O)N3)CC1 [Entry 16, (3Z)-3-[1H-benzimidazol-2-yl(4-fluorophenyl)methylidene]-5[(1-ethylpiperidin-4-yl)amino]-1,3-dihydro-2H-indol-2-one]	< 50	50 to 500	500 to 5000	50 to 500	< 50	500 to 5000	500 to 5000	–
CCN1CCC(Nc2ccc3c(c2)/C(=C(\c2cccc([N+](=O)[O-])c2)c2nc4ccccc4[nH]2)C(=O)N3)CC1 [Entry 19, (3Z)-3-[1H-benzimidazol-2-yl(3-nitrophenyl)methylidene]-5-[(1-ethylpiperidin-4-yl)amino]-1,3-dihydro-2H-indol-2-one]	< 50	50 to 500	500 to 5000	50 to 500	< 50	500 to 5000	500 to 5000	–
CCN1CCC(Nc2ccc3c(c2)/C(=C(\c2cccc(C#N)c2)c2nc4ccccc4[nH]2)C(=O)N3)CC1 [Entry 20, 3-((Z)-1H-benzimidazol-2-yl{5-[(1-ethylpiperidin-4-yl)amino]-2-oxo-1,2-dihydro-3H-indol-3-ylidene)methyl) benzonitrile]	< 50	500 to 5000	500 to 5000	50 to 500	50 to 500	500 to 5000	500 to 5000	–
CCN1CCC(Nc2ccc3c(c2)/C(=C(\c2cccc(N)c2)c2nc4ccccc4[nH]2)C(=O)N3)CC1 [Entry 21, (3Z)-3-[(3-aminophenyl) (1H-benzimidazol-2-yl)methylidene]-5-[(1-ethylpiperidin-4-yl)amino]-1,3-dihydro-2H-indol-2-one]	< 50	50 to 500	500 to 5000	50 to 500	< 50	500 to 5000	500 to 5000	–
O=C1Nc2ccc(NC3CCNCC3)cc2/C1=C(\c1ccccc1)c1nc2ccccc2[nH]1 [Entry 22, (3Z)-3-[1H-benzimidazol-2-yl(phenyl)methylidene] -5-(piperidin-4-ylamino)-1,3-dihydro-2H-indol-2-one]	< 50	50 to 500	50 to 500	< 50	< 50	500 to 5000	50 to 500	–
CCN1CCC(Nc2ccc3c(c2)/C(=C(\c2cccc(C(=N)N)c2)c2nc4ccccc4[nH]2)C(=O)N3)CC1 [Entry 23, 3-((Z)-1H-benzimidazol-2-yl{5-[(1-ethylpiperidin-4-yl)amino]-2-oxo-1,2-dihydro-3H-indol-3-ylidene}methyl) benzenecarboximidamide]	500 to 5000	500 to 5000	500 to 5000	500 to 5000	500 to 5000	500 to 5000	500 to 5000	–
CC1(C)CC(Nc2ccc3c(c2)/C(=C(\c2ccccc2)c2nc4ccccc4[nH]2)C(=O)N3)CC(C)(C)N1 [Entry 25, (3Z)-3-[1H-benzimidazol-2-yl(phenyl)methylidene]-5-[(2,2,6,6-tetramethylpiperidin-4-yl)amino]-1,3-dihydro-2H-indol-2-one]	50 to 500	500 to 5000	500 to 5000	500 to 5000	50 to 500	500 to 5000	500 to 5000	–
CCN1CCC(Nc2ccc3c(c2)/C(=C(\c2ccccc2)c2nc(CCN4C(=O)c5ccccc5C4=O)c[nH]2)C(=O)N3)CC1 [Entry 28, 2-(2-{2-[(Z)-{5-[(1-ethylpiperidin-4-yl)amino]-2-oxo-1,2-dihydro-3H-indol-3-ylidene}(phenyl)methyl]-1H-imidazol-4-yl}ethyl)-1H-isoindole-1,3(2H)-dione]	< 50	50 to 500	500 to 5000	50 to 500	< 50	500 to 5000	500 to 5000	–
CN(C)CCN1CCC(Nc2ccc3c(c2)/C(=C(\c2ccccc2)c2nc4ccccc4[nH]2)C(=O)N3)CC1 [Entry 29, (3Z)-3-[1H-benzimidazol-2-yl(phenyl)methylidene]-5-({1-[2-(dimethylamino)ethyl]piperidin-4-yl}amino)-1,3-dihydro-2H-indol-2-one]	< 50	500 to 5000	500 to 5000	50 to 500	50 to 500	500 to 5000	500 to 5000	–
COCCN1CCC(Nc2ccc3c(c2)/C(=C(\c2ccc(C(F)(F)F)c(F)c2)c2ncc[nH]2)C(=O)N3)CC1 [Entry 92]	< 50	–	500 to 5000	50 to 500	< 50	> 5000	> 5000	50 to 500
